From patent US20100160454A1, “ANTIMICROBIAL AGENTS, COMPOSITIONS AND PRODUCTS CONTAINING THE SAME, AND METHODS OF USING THE COMPOSITIONS AND PRODUCTS” (Eastman Chemical Company, priority 2008, published 2010)

Key:
Assay in all cases: Challenge testing against pathogenic fungi, growth rating in broth tubes
Assay type in all cases: cell-based
Set-up in all cases: key: 0: No visible growth; 1: Some growth in tube; 2: Moderate growth in tube; 3: Good growth in tube; 4: Extreme growth in tube
[1] = test system: Malassezia furfur (ATCC 96809)
Description: (§1) Both Microsporum canis and Trichophyton rubrum were grown on Sabouraud dextrose broth, while Malassezia fufur was grown in Sabouraud dextrose broth supplemented with 2% (v/v) of olive oil and 0.2% (v/v) of Tween™ 80; incubation was at 22°±2° C. under continuous agitation by stirring for 10 days. The organisms were grown to a density of between 1.0×10^3 to 1.0×10^4 cfu/g. The actual inoculation cell density of these challenges were determined by diluting in sterile buffer water and (spread-plate method) plating for enumeration.
(§2) Challenge organisms were used to inoculate tubes of 1,4-CHDM-D90 test concentrations prepared in Sabouraud dextrose broth (or Sabouraud dextrose broth supplemented with olive oil-Tween™ 80 with M. furfur). The inoculations were in the amount of 1.5 mL aliquots of each culture with static incubation at 22±2° C. Subcultures were made at 3-, 14- and 30-day increments. All challenges were conducted in triplicate. In the case of M. canis, the growth response was assessed by the visual presence/absence of growth in the tubes; in the case of T. rubrum, a respiratory (redox) dye (0.2% w/v aqueous INT solution: 2-[4-iodophenyl)-3-4-nitrophenyl]-5-phenyl tetrazolium chloride) was added to the tubes, turning red if the organism was viable; and, finally, in the case of M. furfur, the growth response was assessed based upon pellicle formation in the tubes at the meniscus. The test formulations and challenge test results, as well as 30-day MICs (Minimum Inhibitory Concentration), are in Tables 7-9 for the three organisms using the following growth rating system:
(§3) • 0: No visible growth • 1: Some growth in tube • 2: Moderate growth in tube • 3: Good growth in tube • 4: Extreme growth in tube

[2] = test system: Trichophyton rubrum (ATCC 10218)
Description: as §1, §2, §3

[3] = test system: Microsporum canis (ATTC 9084)
Description: as §1, §2, §3

| SMILES | M. furfur growth rating, 3 day ([1]; 0.5% weight/volume) | M. furfur growth rating, 14 day ([1]; 0.5% weight/volume) | M. furfur growth rating, 30 day ([1]; 0.5% weight/volume) | M. furfur growth rating, 3 day ([1]; 1.25% weight/volume) | M. furfur growth rating, 14 day ([1]; 1.25% weight/volume) | M. furfur growth rating, 30 day ([1]; 1.25% weight/volume) | M. furfur growth rating, 3 day ([1]; 2.5% weight/volume) | M. furfur growth rating, 14 day ([1]; 2.5% weight/volume) | M. furfur growth rating, 30 day ([1]; 2.5% weight/volume) | M. furfur growth rating, 3 day ([1]; 5.0% weight/volume) | M. furfur growth rating, 14 day ([1]; 5.0% weight/volume) | M. furfur growth rating, 30 day ([1]; 5.0% weight/volume) | T. rubrum growth rating, 3 day ([2]; 0.5% weight/volume) | T. rubrum growth rating, 14 day ([2]; 0.5% weight/volume) | T. rubrum growth rating, 30 day ([2]; 0.5% weight/volume) | T. rubrum growth rating, 3 day ([2]; 1.25% weight/volume) | T. rubrum growth rating, 14 day ([2]; 1.25% weight/volume) | T. rubrum growth rating, 30 day ([2]; 1.25% weight/volume) | T. rubrum growth rating, 3 day ([2]; 2.5% weight/volume) | T. rubrum growth rating, 14 day ([2]; 2.5% weight/volume) | other results |
| --- | --- | --- | --- | --- | --- | --- | --- | --- | --- | --- | --- | --- | --- | --- | --- | --- | --- | --- | --- | --- | --- |
| OCC1CCCC(CO)C1 (stereo not drawn) [1,3-CHDM, 1,3-cyclohexanedimethanol] | 0 | 1 | 3 | 0 | 2 | 3 | 0 | 0 | 0 | 0 | 2 | 3 | 0 | 2 | 1 | 1 | 0 | 0 | 0 | 0 | T. rubrum growth rating, 30 day ([2]; 2.5% weight/volume): 0; T. rubrum growth rating, 3 day ([2]; 5.0% weight/volume): 2; T. rubrum growth rating, 14 day ([2]; 5.0% weight/volume): 0; T. rubrum growth rating, 30 day ([2]; 5.0% weight/volume): 0; M. canis growth rating, 3 day ([3]; 0.5% weight/volume): 2; M. canis growth rating, 14 day ([3]; 0.5% weight/volume): 1; M. canis growth rating, 30 day ([3]; 0.5% weight/volume): 1; M. canis growth rating, 3 day ([3]; 1.25% weight/volume): 2; M. canis growth rating, 14 day ([3]; 1.25% weight/volume): 1; M. canis growth rating, 30 day ([3]; 1.25% weight/volume): 1; M. canis growth rating, 3 day ([3]; 2.5% weight/volume): 0; M. canis growth rating, 14 day ([3]; 2.5% weight/volume): 0; M. canis growth rating, 30 day ([3]; 2.5% weight/volume): 0; M. canis growth rating, 3 day ([3]; 5.0% weight/volume): 2; M. canis growth rating, 14 day ([3]; 5.0% weight/volume): 1; M. canis growth rating, 30 day ([3]; 5.0% weight/volume): 1 |
| OCC1CCCCC1CO (stereo not drawn) [1,2-CHDM, 1,2-cyclohexanedimethanol] | 0 | 0 | 0 | 0 | 0 | 0 | 0 | 0 | 0 | 0 | 0 | 0 | 0 | 0 | 0 | 0 | 0 | 0 | 1 | 0 | T. rubrum growth rating, 30 day ([2]; 2.5% weight/volume): 0; T. rubrum growth rating, 3 day ([2]; 5.0% weight/volume): 0; T. rubrum growth rating, 14 day ([2]; 5.0% weight/volume): 0; T. rubrum growth rating, 30 day ([2]; 5.0% weight/volume): 0; M. canis growth rating, 3 day ([3]; 0.5% weight/volume): 2; M. canis growth rating, 14 day ([3]; 0.5% weight/volume): 1; M. canis growth rating, 30 day ([3]; 0.5% weight/volume): 1; M. canis growth rating, 3 day ([3]; 1.25% weight/volume): 1; M. canis growth rating, 14 day ([3]; 1.25% weight/volume): 0; M. canis growth rating, 30 day ([3]; 1.25% weight/volume): 0; M. canis growth rating, 3 day ([3]; 2.5% weight/volume): 0; M. canis growth rating, 14 day ([3]; 2.5% weight/volume): 0; M. canis growth rating, 30 day ([3]; 2.5% weight/volume): 0; M. canis growth rating, 3 day ([3]; 5.0% weight/volume): 0; M. canis growth rating, 14 day ([3]; 5.0% weight/volume): 0; M. canis growth rating, 30 day ([3]; 5.0% weight/volume): 0 |
